Experimental findings from patent US20150105386A1, “4-(4-PYRIDINYL)-BENZAMIDES AND THEIR USE AS ROCK ACTIVITY MODULATORS” (AbbVie Deutschland GmbH & Co KG, priority 2007, published 2015) are described below.

This experiment has as its target T1, hROCK-2 (Homo sapiens, UniProt O75116).
T1 construct: purchased Upstate
In words: ROCK-2 Assay (33P-ATP FlashPlate kinase assay, biotinylated S6 peptide). It is filed as biochemical. As to conditions: hROCK-2 0.8 nM, 5 μM ATP, 1.5 μM biotinylated S6 peptide, room temperature, 60 min. As for the experimental part:
The reaction is stopped by addition of 150 μl of 0.1 M EDTA in Dulbecco's PBS. 170 μl from each well are loaded onto a FlashPlate (PerkinElmer) and incubated at room temperature for 30 min.

T1 sequence (O75116 whole entry): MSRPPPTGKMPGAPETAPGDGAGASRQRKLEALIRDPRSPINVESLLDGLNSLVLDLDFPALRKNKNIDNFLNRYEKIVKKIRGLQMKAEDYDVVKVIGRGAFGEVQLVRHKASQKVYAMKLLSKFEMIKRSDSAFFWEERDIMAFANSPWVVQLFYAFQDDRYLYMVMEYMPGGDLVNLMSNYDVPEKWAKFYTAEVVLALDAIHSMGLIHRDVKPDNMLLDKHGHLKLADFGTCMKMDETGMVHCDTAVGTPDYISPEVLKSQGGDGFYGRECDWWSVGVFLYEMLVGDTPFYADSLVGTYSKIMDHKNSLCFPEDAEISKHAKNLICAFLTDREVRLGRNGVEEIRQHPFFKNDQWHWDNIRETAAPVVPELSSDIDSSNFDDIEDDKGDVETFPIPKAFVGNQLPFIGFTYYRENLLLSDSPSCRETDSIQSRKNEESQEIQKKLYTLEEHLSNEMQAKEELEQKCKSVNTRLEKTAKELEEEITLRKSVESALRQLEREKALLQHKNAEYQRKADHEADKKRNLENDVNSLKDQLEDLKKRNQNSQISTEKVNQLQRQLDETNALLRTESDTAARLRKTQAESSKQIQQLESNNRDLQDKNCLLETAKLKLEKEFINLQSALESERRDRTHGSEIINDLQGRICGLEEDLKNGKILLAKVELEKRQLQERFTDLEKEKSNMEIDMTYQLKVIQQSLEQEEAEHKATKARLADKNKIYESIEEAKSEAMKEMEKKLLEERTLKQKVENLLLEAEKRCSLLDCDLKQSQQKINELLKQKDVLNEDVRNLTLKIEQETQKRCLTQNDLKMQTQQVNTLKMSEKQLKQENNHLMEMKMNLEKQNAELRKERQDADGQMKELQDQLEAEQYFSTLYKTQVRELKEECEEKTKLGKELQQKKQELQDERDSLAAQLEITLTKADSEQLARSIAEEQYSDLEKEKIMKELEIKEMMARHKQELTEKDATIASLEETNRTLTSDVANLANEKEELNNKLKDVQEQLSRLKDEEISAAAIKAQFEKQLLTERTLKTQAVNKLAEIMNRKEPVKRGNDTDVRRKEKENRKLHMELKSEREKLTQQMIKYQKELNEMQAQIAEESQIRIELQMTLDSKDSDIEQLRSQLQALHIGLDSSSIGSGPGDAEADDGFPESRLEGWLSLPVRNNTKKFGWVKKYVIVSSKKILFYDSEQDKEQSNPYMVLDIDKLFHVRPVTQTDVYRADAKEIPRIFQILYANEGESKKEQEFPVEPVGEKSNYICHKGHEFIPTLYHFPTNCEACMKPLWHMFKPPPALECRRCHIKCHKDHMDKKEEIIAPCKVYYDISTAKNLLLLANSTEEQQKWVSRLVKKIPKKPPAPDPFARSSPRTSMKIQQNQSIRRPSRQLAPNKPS

`COc1cccc([C@@H](C)NC(=O)c2ccc(-c3ccncc3)cc2F)c1` [Example 245, 2-fluoro-N—[(R)-1-(3-methoxy-phenyl)-ethyl]-4-pyridin-4-yl-benzamide] came in with a Ki of under 50 nM.

Consider `COc1cccc(C(CN2CCCC2)NC(=O)c2ccc(-c3ccncc3)cc2)c1` (stereo not drawn) [Example 149, N-[1-(3-methoxy-phenyl)-2-pyrrolidin-1-yl-ethyl]-4-pyridin-4-yl-benzamide], for which the inhibitory constant (Ki) is under 50 nM.

Turning to `C[C@@H](NC(=O)c1ccc(-c2ccncc2)cc1)c1ccc(Cl)cc1` [Example 90, N-[(1R)-1-(4-chlorophenyl)ethyl]-4-pyridin-4-ylbenzamide], the Ki was under 50 nM.

Consider `O=C(NC(CO)c1cccc2ccccc12)c1ccc(-c2ccncc2)cc1` (stereo not drawn) [Example 187, N-(2-hydroxy-1-naphthalen-1-yl-ethyl)-4-pyridin-4-yl-benzamide], for which the Ki was under 50 nM.

`COc1cccc([C@@H](C)NC(=O)c2ccc(-c3ccncc3F)cc2OC)c1` [Example 247, 4-(3-fluoro-pyridin-4-yl)-2-methoxy-N—[(R)-1-(3-methoxy-phenyl)-ethyl]-benzamide] gave a Ki of under 50 nM.

`Cc1cnccc1-c1ccc(C(=O)NC(CO)c2cccc3ccccc23)cc1` (stereo not drawn) [Example 172, N-(2-hydroxy-1-naphthalen-1-yl-ethyl)-4-(3-methyl-pyridin-4-yl)-benzamide] had a Ki of under 50 nM.

The compound `C[C@@H](NC(=O)c1ccc(-c2ccncc2)cc1)c1ccc(F)cc1` [Example 85, N-[(1R)-1-(4-fluorophenyl)ethyl]-4-pyridin-4-ylbenzamide] returned a Ki of under 50 nM.

For `Cc1cnccc1-c1ccc(C(=O)N[C@H](C)c2ccc(Br)cc2)cc1` [Example 166, N—[(R)-1-(4-bromo-phenyl)-ethyl]-4-(3-methyl-pyridin-4-yl)-benzamide], the Ki was 50 to 500 nM.

`O=C(N[C@H](CCO)c1ccccc1)c1ccc(-c2ccncc2)cc1` [Example 2, N-[(1R)-3-hydroxy-1-phenylpropyl]-4-pyridin-4-ylbenzamide] gave a Ki of under 50 nM.

`CC(NC(=O)c1ccc(-c2ccncc2)cc1)c1ccccn1` (stereo not drawn) [Example 76, 4-pyridin-4-yl-N-(1-pyridin-2-ylethyl)benzamide] yielded a Ki of 50 to 500 nM.

In turn, `Cc1cnccc1-c1ccc(C(=O)NC(CO)c2cc(Cl)cc(Cl)c2)cc1` (stereo not drawn) [Example 185, N-[1-(3,5-dichloro-phenyl)-2-hydroxy-ethyl]-4-(3-methyl-pyridin-4-yl)-benzamide] registered a Ki of 50 to 500 nM.

For the compound `COc1cccc([C@@H](C)NC(=O)c2ccc(-c3ccncc3)c(Cl)c2)c1` [Example 156, 3-Chloro-N—[(R)-1-(3-methoxy-phenyl)-ethyl]-4-pyridin-4-yl-benzamide], the Ki was under 50 nM.

The compound `COc1cccc([C@H](C)NC(=O)c2ccc(-c3ccncc3)c(C)c2)c1` [Example 102, N—[(S)-1-(3-methoxy-phenyl)-ethyl]-3-methyl-4-pyridin-4-yl-benzamide] yielded a Ki of under 50 nM.

In turn, `Cc1ccc(C(CN)NC(=O)c2ccc(-c3ccncc3)cc2)cc1` (stereo not drawn) [Example 46, N-[2-amino-1-(4-methylphenyl)ethyl]-4-pyridin-4-ylbenzamide] displayed a Ki of under 50 nM.

As for `O=C(NC(CN1CCCCC1)c1ccccc1)c1ccc(-c2ccncc2)cc1` (stereo not drawn) [Example 36, N-(1-phenyl-2-piperidin-1-ylethyl)-4-pyridin-4-ylbenzamide], the Ki is under 50 nM.

In turn, `CN(C)CC(NC(=O)c1ccc(-c2ccncc2)cc1)c1ccccc1` (stereo not drawn) [Example 30, N-[2-(dimethylamino)-1-phenylethyl]-4-pyridin-4-ylbenzamide] yielded a Ki of under 50 nM.

In turn, `O=C(N[C@@H](Cc1ccccc1)CN1CCCC1)c1ccc(-c2ccncc2)cc1` [Example 28, N-[(1S)-1-benzyl-2-pyrrolidin-1-ylethyl]-4-pyridin-4-ylbenzamide] registered an inhibition constant (Ki) of under 50 nM.

The compound `Cc1cnccc1-c1ccc(C(=O)N[C@H](C)c2cccc(C(F)(F)F)c2)cc1` [Example 181, 4-(3-methyl-pyridin-4-yl)-N—[(R)-1-(3-trifluoromethyl-phenyl)-ethyl]-benzamide] gave a Ki of under 50 nM.

For `COCC(Cc1ccccc1)NC(=O)c1ccc(-c2ccncc2)cc1` (stereo not drawn) [Example 16, N-(1-benzyl-2-methoxyethyl)-4-pyridin-4-ylbenzamide], the Ki lay within 50 to 500 nM.

Compound `C[C@@H](NC(=O)c1ccc(-c2ccncc2)cc1)c1cccc2ccccc12` [Example 47, N-[(1R)-1-(1-naphthyl)ethyl]-4-pyridin-4-ylbenzamide] had a Ki of under 50 nM.

Regarding `COc1cc(-c2ccncc2)ccc1C(=O)N[C@H](C)c1ccccc1` [Example 112, 2-methoxy-N—((R)-1-phenyl-ethyl)-4-pyridin-4-yl-benzamide], the Ki is under 50 nM.

Compound `O=C(NC(CN1CCCC1)c1ccccc1)c1ccc(-c2ccncc2)cc1` (stereo not drawn) [Example 31, N-(1-phenyl-2-pyrrolidin-1-ylethyl)-4-pyridin-4-ylbenzamide] returned a Ki of under 50 nM.

Compound `CC(NC(=O)c1ccc(-c2ccncc2)cc1)c1cccc(OCc2ccccc2)c1` (stereo not drawn) [Example 151, N-[1-(3-benzyloxy-phenyl)-ethyl]-4-pyridin-4-yl-benzamide] registered a Ki of under 50 nM.

`COc1cccc([C@H](C)NC(=O)c2ccc(-c3ccncc3C)cc2)c1` [Example 179, N—[(S)-1-(3-methoxy-phenyl)-ethyl]-4-(3-methyl-pyridin-4-yl)-benzamide] returned a Ki of 50 to 500 nM.

`CC(NC(=O)c1ccc(-c2ccncc2)cc1)c1cccnc1` (stereo not drawn) [Example 79, 4-pyridin-4-yl-N-(1-pyridin-3-ylethyl)benzamide]: the Ki was in the range of 50 to 500 nM.

As for `C[C@@H](NC(=O)c1ccc(-c2ccncc2)cc1)c1ccccc1C(F)(F)F` [Example 86, 4-pyridin-4-yl-N-{(1R)-1-[2-(trifluoromethyl)phenyl]ethyl}benzamide], the Ki is 50 to 500 nM.

`CC(C)(C)OC(=O)NCC(NC(=O)c1ccc(-c2ccncc2)cc1)c1ccccc1` (stereo not drawn) [Example 3, tert-Butyl-{2-phenyl-2-[(4-pyridin-4-ylbenzoyl)amino]ethyl}carbamate] returned a Ki of 50 to 500 nM.

In turn, `C[C@@H](NC(=O)c1ccc(-c2ccncc2)cc1)c1ccccc1F` [Example 88, N-[(1R)-1-(2-fluorophenyl)ethyl]-4-pyridin-4-ylbenzamide] displayed an inhibitory constant (Ki) of under 50 nM.

Regarding `Cc1ccc([C@@H](C)NC(=O)c2ccc(-c3ccncc3)cc2)cc1` [Example 82, N-[(1R)-1-(4-methylphenyl)ethyl]-4-pyridin-4-ylbenzamide], the Ki was 50 to 500 nM.

Compound `O=C(NC(CN1CCOCC1)c1ccccc1)c1ccc(-c2ccncc2)cc1` (stereo not drawn) [Example 32, N-(2-morpholin-4-yl-1-phenylethyl)-4-pyridin-4-ylbenzamide] registered a Ki of under 50 nM.

In the case of `C[C@@H](NC(=O)c1ccc(-c2ccncc2)cc1Cl)c1cccc2ccccc12` [Example 192, 2-chloro-N—((R)-1-naphthalen-1-yl-ethyl)-4-pyridin-4-yl-benzamide], the Ki was under 50 nM.

Compound `O=C(N[C@H](CO)Cc1ccccc1)c1ccc(-c2ccncc2)cc1` [Example 7, N-[(1S)-1-benzyl-2-hydroxyethyl]-4-pyridin-4-ylbenzamide] gave a Ki of under 50 nM.

Compound `O=C(NC(CO)c1cccnc1)c1ccc(-c2ccncc2)cc1` (stereo not drawn) [Example 39, N-(2-hydroxy-1-pyridin-3-ylethyl)-4-pyridin-4-ylbenzamide] displayed a Ki of 50 to 500 nM.

In the case of `Cc1cnccc1-c1ccc(C(=O)NC2CCCc3ccccc32)cc1` (stereo not drawn) [Example 160, 4-(3-methyl-pyridin-4-yl)-N-(1,2,3,4-tetrahydro-naphthalen-1-yl)-benzamide], the Ki was in the range of 50 to 500 nM.

`C[C@@H](NC(=O)c1ccc(-c2ccncc2)cc1)c1ccc2ccccc2c1` [Example 91, N-[(1R)-1-(2-naphthyl)ethyl]-4-pyridin-4-ylbenzamide] showed a Ki of under 50 nM.

With `C[C@@H](NC(=O)c1ccc(-c2ccncc2)c(F)c1)c1ccc2ccccc2c1` [Example 229, 3-fluoro-N—((R)-1-naphthalen-2-yl-ethyl)-4-pyridin-4-yl-benzamide], the Ki was in the range of 50 to 500 nM.

`COc1cccc([C@@H](C)NC(=O)c2ccc(-c3cc(F)ncc3C)cc2)c1` [Example 248, 4-(2-fluoro-5-methyl-pyridin-4-yl)-N—[(R)-1-(3-methoxy-phenyl)-ethyl]-benzamide] registered an inhibition constant Ki of under 50 nM.

In turn, `Cc1cnccc1-c1ccc(C(=O)N[C@H](C)c2ccccc2)cc1` [Example 157, 4-(3-methyl-pyridin-4-yl)-N—((R)-1-phenyl-ethyl)-benzamide] showed an inhibition constant Ki of under 50 nM.

Consider `COc1cc(-c2ccncc2)ccc1C(=O)NC(CO)c1cc(Cl)cc(Cl)c1` (stereo not drawn) [Example 135, N-[1-(3,5-dichloro-phenyl)-2-hydroxy-ethyl]-2-methoxy-4-pyridin-4-ylbenzamide], for which the Ki was under 50 nM.

`COc1cccc([C@H](C)NC(=O)c2ccc(-c3ccncc3)c(F)c2)c1` [Example 236, 3-fluoro-N—[(S)-1-(3-methoxy-phenyl)-ethyl]-4-pyridin-4-yl-benzamide] gave a Ki of 50 to 500 nM.

In turn, `COc1ccc(C(CN)NC(=O)c2ccc(-c3ccncc3)cc2)cc1` (stereo not drawn) [Example 44, N-[2-amino-1-(4-methoxyphenyl)ethyl]-4-pyridin-4-ylbenzamide] registered a Ki of 50 to 500 nM.

The compound `O=C(N[C@H](CO)Cc1c[nH]c2ccccc12)c1ccc(-c2ccncc2)cc1` [Example 14, N-[(1S)-2-hydroxy-1-(1H-indol-3-ylmethyl)ethyl]-4-pyridin-4-ylbenzamide] gave a Ki of 50 to 500 nM.

`CC(NC(=O)c1ccc(-c2ccncc2)cc1)c1ccco1` (stereo not drawn) [Example 53] registered a Ki of 50 to 500 nM.

`COc1cc(-c2ccncc2)ccc1C(=O)N[C@H](CCO)c1ccccc1` [Example 94, N—((R)-3-hydroxy-1-phenyl-propyl)-2-methoxy-4-pyridin-4-yl-benzamide] displayed an inhibition constant (Ki) of under 50 nM.

In turn, `Cc1cnccc1-c1ccc(C(=O)N[C@H](C)c2ccc(Cl)cc2)cc1` [Example 168, N—[(R)-1-(4-chloro-phenyl)-ethyl]-4-(3-methyl-pyridin-4-yl)-benzamide] returned a Ki of 50 to 500 nM.
